IC50 and Concentration data for 21 compounds are collected here from ChEMBL document CHEMBL1130144, “Ras farnesyltransferase: a new therapeutic target” (J Med Chem, 1997).

Non-standard residues stand in square brackets, D forms with d. Residues, ends and D or L forms follow the SMILES beside them. *: point of attachment. Cbz = O=C(OCc1ccccc1)*; Bn = c1ccc(C*)cc1

Test [1] deals with Protein farnesyltransferase (Bos taurus, UniProt P29702+P49355). In words: Activity against bovine Farnesyltransferase. In kind it is protein-complex assay.
For test [2], the target named is T1, Protein farnesyltransferase (Mus musculus) (UniProt Q61239+Q8K2I1). In words: (§1) Inhibition of Ras-processing in H-Ras transformed NIH3T3 fibroblasts. In kind it is functional, cell-based.
Test [3] addresses T2, Protein farnesyltransferase (Homo sapiens, UniProt P49354+P49356). In words: Activity against Ras Farnesyltransferase from Burkett's lymphoma. In kind it is protein-complex assay.
The target in test [4] is T2, Protein farnesyltransferase. In words: Activity against Ras Farnesyltransferase from human colon carcinoma. In kind it is protein-complex assay.
The target is the same in test [5]. In words: Activity against Farnesyltransferase. In kind it is protein-complex assay.
Test [6] concerns the target T3, Protein farnesyltransferase (Rattus norvegicus, UniProt Q02293+Q04631). In words: Activity against rat Farnesyltransferase. The class given is protein-complex assay.
Test [7] concerns NIH3T3. In words: Inhibition in clonogenic assay against H-Ras-transformed NIH3T3 cells. In kind it is functional, cell-based. Particulars: Mus musculus.
Test [8] concerns the target Protein farnesyltransferase (Mus musculus, UniProt Q61239+Q8K2I1). The description is as §1. The class given is functional, cell-based.
The target of test [9] is T3, Protein farnesyltransferase. In words: Activity against rat brain Farnesyltransferase.
Test [10] has as its target T1, Protein farnesyltransferase (Mus musculus). In words: Concentration disrupting H-Ras processing in human H-Ras BALB/c 3T3 cells. The class given is functional, cell-based.
Test [11] concerns the target T2, Protein farnesyltransferase. In words: Activity against human Farnesyltransferase. The class given is protein-complex assay.
The species entered for the next test is Mus musculus. In words: Concentration causing regression of MMTV-v-Ras mice bearing palpable tumors. The class given is functional, organism-based.
Test [12] can be described thus: Inhibition of K-Ras-transformed fibrosarcoma growth. The class given is functional.
Test [13] relates to NIH3T3. In words: Inhibition of Ras processing in v-Ras-transformed NIH 3T3 cell growth in soft agar at 50 uM. Particulars: Mus musculus. The class given is functional, cell-based.

The term IC50 denotes the midpoint of a concentration-inhibition curve. The compound `CCC(=O)O[C@H](C[C@@]1(C)[C@H](C)CCC(=O)[C@@H]1C)/C(C)=C/Cc1c(O)cc(C)c(C=O)c1O` [CYLINDROL A] came in with a half-maximal inhibitory concentration (IC50) in test [1] of 2200 nM.
Take `COC(=O)[C@H](CCSC)NC(=O)[C@@H](NC(=O)[C@@H](NC(=O)CCP(=O)(O)C/C=C(\C)CC/C=C(\C)CCC=C(C)C)C(C)C)C(C)C`: the Concentration in [2] turned out to be 0.1 µM.
As for `CSC[C@H](NC(=O)c1cccc(CNC(=O)[C@@H](N)CS)c1)C(=O)O`, the IC50 was 120 nM in [3] and 60 nM in [4].
In test [1], `O=C1C=C[C@]23Oc4ccc(O)c5c4[C@](Oc4cccc1c42)(O3)C1OC1C5=O` (some centres not stated) [PREUSSOMERIN] had an IC50 of 1200 nM.
Take `CC(C)=CCC/C(C)=C/CC/C(C)=C/CONC(=O)COP(=O)(O)O`: half-maximal inhibition in test [5] (IC50) was put at 75 nM.
In the case of `CSCC[C@H](NC(=O)[C@@H]1Cc2ccccc2CN1C(=O)[C@@H](NCCc1cnc[nH]1)C(C)C)C(=O)O`, the results for the IC50 (in test [6]; with NIH3T3 [7]) were 0.79 nM and 3800 nM, respectively.
In [8], `C[C@@H](NC(=O)[C@H](Cc1c[nH]c2ccccc12)NC(=O)[C@H](COCc1ccccc1)NC(=O)[C@H](Cc1ccc(OCc2ccccc2)cc1)NC(=O)[C@H](Cc1c[nH]cn1)NC(=O)OCc1ccccc1)C(N)=O` returned a concentration for half-maximal inhibition (IC50) of 420 nM.
In test [6], `CSCCC(NC(=O)CN1C(=O)[C@H](N(C)C(=O)[C@H](N)CS)NC(c2ccccc2)c2ccccc21)C(=O)O` (some centres not stated) registered a 50% inhibitory concentration (IC50) of 0.79 nM.
Compound `CCC(C)[C@@H](CO[C@@H](Cc1ccccc1)C(=O)N[C@@H](CCS(C)(=O)=O)C(=O)O)NC[C@@H](N)CS` (some centres not stated) returned a half-maximal inhibitory concentration (IC50) in [1] of 240 nM.
Consider `N[C@@H](CS)CNc1ccc(-c2cccc(C(=O)O)c2)cc1`, for which it took 50 nM to reach half-maximal inhibition in test [9] (IC50). For the same compound, the Concentration in [10] amounted to 50 µM.
For the compound `CCCCCCCC/C=C\CCCCCC/C(C(=O)O)=C(\C)C(=O)O` [CHAETOMELLIC ACID B], in test [11], the IC50 was 190 nM.
In the test listed under Mus musculus, `CC[C@H](C)[C@@H](CO[C@@H](Cc1ccccc1)C(=O)N[C@@H](CCS(C)(=O)=O)C(=O)OC(C)C)NC[C@@H](N)CS` returned a Concentration of 40 mg/kg.
Regarding `CCC(CC(C)C(=O)O)C(=O)CC/C1=C/C(C)C/C(C)=C/C(C)C(O)C(C)CCC(CCCC/C=C/C(C)CCC(C)OC(=O)CC(CC(=O)O)C(=O)O)OC(=O)CC(C(=O)O)CC(=O)OC1` (configuration not stated) [ACTINOPLANIC ACID A], in test [11], the half-maximal inhibitory concentration (IC50) amounted to 230 nM.
Take `CN1C(=O)[C@]23CC4=CC=C[C@H](O)[C@H]4N2C(=O)[C@@]1(CO)SS3` [GLIOTOXIN]: in test [12], the Concentration stood at 6.3 mg/kg. In test [5], this compound yielded an IC50 of 1100 nM.
In the case of `COC(=O)C(CCSC)NC(=O)CN1C(=O)[C@H](N(C)C(=O)[C@H](N)CS)NC(c2ccccc2)c2ccccc21` (some centres not stated), the concentration for half-maximal inhibition (IC50) in test [6] worked out at 0.85 nM.
In [11], `CCCCCCCCCCCCCC/C(C(=O)O)=C(\C)C(=O)O` [CHAETOMELLIC ACID A] showed an IC50 of 60 nM.
Take `C[C@@H](NC(=O)[C@H](Cc1c[nH]c2ccccc12)NC(=O)[C@H](COCc1ccccc1)NC(=O)[C@H](Cc1ccc(OCc2ccccc2)cc1)NC(=O)[C@@H](Cc1c[nH]cn1)NC(=O)OCc1ccccc1)C(N)=O` (Cbz-[dH]Y(Bn)S(Bn)W[dA]-NH2): the Concentration in [2] stood at 25 µM. This compound also showed an IC50 in test [5] of 20 nM.
Compound `CN(C(=O)[C@@H](Cc1cnc[nH]1)NC(=O)OCc1ccccc1)[C@@H](Cc1ccc(OCc2ccccc2)cc1)C(=O)NCCOCc1ccccc1` returned an IC50 in test [5] of 400 nM.
As for `CCC(C)[C@@H](CO[C@@H](Cc1ccccc1)C(=O)N[C@@H](CCS(C)(=O)=O)C(=O)OC)NC[C@@H](N)CS` (some centres not stated), the IC50 was 10000 nM with NIH3T3 [13] and 240 nM in test [1].
As for `COC(=O)C1=CC(CO)=COc2oc3cccc(O)c3c(=O)c21` [FUSIDIENOL], the IC50 in test [1] is 1000 nM.
With `CC(C)=CCC/C(C)=C/CC/C(C)=C/CONC(=O)CP(=O)(O)OCOC(=O)C(C)(C)C`, the midpoint of inhibition in [5], the IC50, lay at 2610 nM.
